In paper PMC5845353, “The selective cathepsin K inhibitor MIV-711 attenuates joint pathology in experimental animal models of osteoarthritis” (Journal of Translational Medicine, 2018):

System: rabbits subjected to anterior cruciate ligament transection (ACLT)
Experiment: Rabbit ACLT study, histomorphometry of bone, cartilage and osteophytes
Assay type: in vivo
Procedure: The femora and tibias were decalcified, embedded in paraffin, sectioned at 5-7 µm at two different levels separated by approximately 2 mm, and stained with safranin O and toluidine blue.
Both tibial plateaus and femoral condyles (i.e. four joint compartments) were also subjected to histomorphometric analysis of cartilage, subchondral bone, cancellous bone, and osteophytes. The measurements were made using OsteoMeasureXP version 3.3.0.2 as follows:
Uncalcified cartilage area was measured by tracing the articular surface (cartilage perimeter) and bone or calcified cartilage/uncalcified cartilage interface (cartilage boundary).
Cartilage width was measured by point to point measurement at intersections between a sampling grid with approximately 0.5 mm spacing and the cartilage boundary. The intercepts measured were orthogonal to the cartilage boundary and ended at the cartilage perimeter. At intersections where the cartilage width was zero due to erosion, a value of zero was recorded.
Subchondral bone width was measured by point to point measurement at intersections between a sampling grid with approximately 0.5 mm spacing and the cartilage boundary. The intercepts measured were orthogonal to the cartilage boundary and ended at the first marrow cavity encountered that had at least one dimension approximately equivalent to nearby trabecular thickness.
Osteophyte area was measured for abaxial osteophytes. On the femur, osteophytes associated with the condyles but not with the trochlear grooves were measured.
Bone area (including osteoid) and perimeter were measured in a 3.8 X 1.5 mm ROI centered approximately 1 mm below the bone/cartilage interface. This ROI was intended to be equivalent to the subchondral cancellous bone VOI measured by microCT. Bone volume (BV/TV), trabecular thickness (Tb.Th), trabecular number (Tb.N) and trabecular separation (Tb.Sp) were derived from these measurements using standard formulae.
Slides were evaluated in animal ID order, i.e. in random order with respect to treatment, so that the measurer was effectively blinded to treatment assignment.
Analysis was performed on all four condyles at two levels (Level 1 and 2) for each condyle:
Group 1) sham + vehicle; Group 2) ACLT + vehicle; Group 3) ACLT + MIV-711, 30 µmol/kg (low dose) and Group 4) ACLT + MIV-711, 100 µmol/kg (high dose).

[1] = Level 1 LFC, Group 3, ACLT + MIV-711 30 µmol/kg
[2] = Level 1 LFC, Group 4, ACLT + MIV-711 100 µmol/kg
[3] = Level 1 LTP, Group 3, ACLT + MIV-711 30 µmol/kg
[4] = Level 1 LTP, Group 4, ACLT + MIV-711 100 µmol/kg
[5] = Level 1 MFC, Group 3, ACLT + MIV-711 30 µmol/kg
[6] = Level 1 MFC, Group 4, ACLT + MIV-711 100 µmol/kg

## C#C[C@@H]1CN(C(=O)[C@H](CC(C)C)NC(=O)c2ccc(-c3nc(N4CCN(C)CC4)sc3F)cc2)[C@@H]2C(=O)CO[C@H]12 [MIV-711]
ACLT rabbits, 30 and 100 µmol/kg
  effect on osteophyte parameters at the microscopic level: did not affect
Level 1, MFC, Group 3
  Cart.Bd, Mean: 8.37 mm
  Cart.Bd, Median: 8.42 mm
  Cart.Pm, Mean: 9.31 mm
  Cart.Pm, Median: 9.55 mm
  Cart.Wi, Mean: 264.49 µm
  Cart.Wi, Median: 233.46 µm
  SCB.Wi, Mean: 796.52 µm
  SCB.Wi, Median: 695.73 µm
Level 1, MFC, Group 4
  Cart.Bd, Mean: 8.94 mm
  Cart.Bd, Median: 8.89 mm
  Cart.Pm, Mean: 10.24 mm
  Cart.Pm, Median: 10.20 mm
  Cart.Wi, Mean: 323.96 µm
  Cart.Wi, Median: 341.58 µm
  SCB.Wi, Mean: 655.48 µm
  SCB.Wi, Median: 627.36 µm
Level 1, MTP, Group 3
  BV/TV, Mean: 37.43%
  BV/TV, Median: 39.13%
  Cart.Ar, Mean: 3.43 mm2
  Cart.Ar, Median: 3.15 mm2
  Cart.Bd, Mean: 5.74 mm
  Cart.Bd, Median: 5.82 mm
  Cart.Pm, Mean: 5.96 mm
  Cart.Pm, Median: 5.73 mm
  Cart.Wi, Mean: 627.75 µm
  Cart.Wi, Median: 633.18 µm
  Ophte.Ar, Mean: 7.76 mm2
  Ophte.Ar, Median: 7.61 mm2
  SCB.Wi, Mean: 718.50 µm
  SCB.Wi, Median: 715.91 µm
  Tb.N, Mean: 2.07 1/mm
  Tb.N, Median: 1.97 1/mm
  Tb.Sp, Mean: 306.15 µm
  Tb.Sp, Median: 294.58 µm
  Tb.Th, Mean: 182.44 µm
  Tb.Th, Median: 174.84 µm
Level 1, MTP, Group 4
  BV/TV, Mean: 35.92%
  BV/TV, Median: 35.01%
  Cart.Ar, Mean: 2.98 mm2
  Cart.Ar, Median: 3.00 mm2
  Cart.Bd, Mean: 5.22 mm
  Cart.Bd, Median: 5.08 mm
  Cart.Pm, Mean: 6.31 mm
  Cart.Pm, Median: 5.70 mm
  Cart.Wi, Mean: 618.52 µm
  Cart.Wi, Median: 551.09 µm
  Ophte.Ar, Mean: 9.09 mm2
  Ophte.Ar, Median: 7.85 mm2
  SCB.Wi, Mean: 839.92 µm
  SCB.Wi, Median: 790.92 µm
  Tb.N, Mean: 1.91 1/mm
  Tb.N, Median: 1.80 1/mm
  Tb.Sp, Mean: 346.56 µm
  Tb.Sp, Median: 370.02 µm
  Tb.Th, Mean: 190.56 µm
  Tb.Th, Median: 188.86 µm
[1]
  BV/TV, Mean: 37.49%
  BV/TV, Median: 36.26%
  Cart.Ar, Mean: 2.52 mm2
  Cart.Ar, Median: 2.55 mm2
  Cart.Bd, Mean: 9.42 mm
  Cart.Bd, Median: 9.52 mm
  Cart.Pm, Mean: 10.23 mm
  Cart.Pm, Median: 10.40 mm
  Cart.Wi, Mean: 263.55 µm
  Cart.Wi, Median: 269.31 µm
  Ophte.Ar, Mean: 2.48 mm2
  Ophte.Ar, Median: 1.89 mm2
  SCB.Wi, Mean: 527.88 µm
  SCB.Wi, Median: 537.74 µm
  Tb.N, Mean: 2.87 1/mm
  Tb.N, Median: 2.78 1/mm
  Tb.Sp, Mean: 221.27 µm
  Tb.Sp, Median: 221.54 µm
  Tb.Th, Mean: 131.58 µm
  Tb.Th, Median: 132.19 µm
[2]
  BV/TV, Mean: 40.76%
  BV/TV, Median: 39.99%
  Cart.Ar, Mean: 3.28 mm2
  Cart.Ar, Median: 3.33 mm2
  Cart.Bd, Mean: 11.05 mm
  Cart.Bd, Median: 11.43 mm
  Cart.Pm, Mean: 11.98 mm
  Cart.Pm, Median: 12.38 mm
  Cart.Wi, Mean: 290.77 µm
  Cart.Wi, Median: 272.05 µm
  Ophte.Ar, Mean: 3.18 mm2
  Ophte.Ar, Median: 1.06 mm2
  SCB.Wi, Mean: 478.03 µm
  SCB.Wi, Median: 466.56 µm
  Tb.N, Mean: 2.76 1/mm
  Tb.N, Median: 2.79 1/mm
  Tb.Sp, Mean: 215.44 µm
  Tb.Sp, Median: 222.15 µm
  Tb.Th, Mean: 147.91 µm
  Tb.Th, Median: 146.15 µm
[3]
  BV/TV, Mean: 43.89%
  BV/TV, Median: 43.62%
  Cart.Ar, Mean: 2.03 mm2
  Cart.Ar, Median: 2.02 mm2
  Cart.Bd, Mean: 6.10 mm
  Cart.Bd, Median: 6.13 mm
  Cart.Pm, Mean: 6.15 mm
  Cart.Pm, Median: 6.13 mm
  Cart.Wi, Mean: 340.85 µm
  Cart.Wi, Median: 342.70 µm
  Ophte.Ar, Mean: 0.43 mm2
  Ophte.Ar, Median: 0.58 mm2
  SCB.Wi, Mean: 532.09 µm
  SCB.Wi, Median: 572.30 µm
  Tb.N, Mean: 2.79 1/mm
  Tb.N, Median: 2.77 1/mm
  Tb.Sp, Mean: 202.57 µm
  Tb.Sp, Median: 211.29 µm
  Tb.Th, Mean: 159.11 µm
  Tb.Th, Median: 141.92 µm
[4]
  BV/TV, Mean: 43.87%
  BV/TV, Median: 45.02%
  Cart.Ar, Mean: 2.49 mm2
  Cart.Ar, Median: 2.63 mm2
  Cart.Bd, Mean: 6.56 mm
  Cart.Bd, Median: 6.67 mm
  Cart.Pm, Mean: 6.48 mm
  Cart.Pm, Median: 6.62 mm
  Cart.Wi, Mean: 391.09 µm
  Cart.Wi, Median: 393.49 µm
  Ophte.Ar, Mean: 0.62 mm2
  Ophte.Ar, Median: 0.37 mm2
  SCB.Wi, Mean: 557.78 µm
  SCB.Wi, Median: 592.81 µm
  Tb.N, Mean: 2.47 1/mm
  Tb.N, Median: 2.39 1/mm
  Tb.Sp, Mean: 232.42 µm
  Tb.Sp, Median: 223.55 µm
  Tb.Th, Mean: 179.81 µm
  Tb.Th, Median: 179.09 µm
[5]
  BV/TV, Mean: 52.87%
  BV/TV, Median: 51.00%
  Cart.Ar, Mean: 2.30 mm2
  Cart.Ar, Median: 2.03 mm2
  Ophte.Ar, Mean: 2.75 mm2
  Ophte.Ar, Median: 2.12 mm2
  Tb.N, Mean: 2.87 1/mm
  Tb.N, Median: 2.98 1/mm
  Tb.Sp, Mean: 164.11 µm
  Tb.Sp, Median: 161.32 µm
  Tb.Th, Mean: 190.82 µm
  Tb.Th, Median: 169.90 µm
[6]
  BV/TV, Mean: 46.41%
  BV/TV, Median: 48.01%
  Cart.Ar, Mean: 2.99 mm2
  Cart.Ar, Median: 3.31 mm2
  Ophte.Ar, Mean: 5.87 mm2
  Ophte.Ar, Median: 1.02 mm2
  Tb.N, Mean: 2.87 1/mm
  Tb.N, Median: 2.92 1/mm
  Tb.Sp, Mean: 189.94 µm
  Tb.Sp, Median: 173.69 µm
  Tb.Th, Mean: 161.31 µm
